Data taken from ChEMBL document CHEMBL1201862, “PubChem BioAssay data set” (2004).
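How tested: cells in 96-well plates exposed to compound for 48 hours at five concentrations. GI50 is the concentration that inhibits growth by half.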 Active and inactive are the calls of the source. No stated cut-off is given here; in the data, active = GI50 up to about 1.1 µM and inactive = higher.

Assays:
Assay in all cases: NCI-60 cell line screen, 48 h
[1] = system: HOP-92
[2] = system: A498
[3] = system: M14
[4] = system: LOX IMVI
[5] = system: SK-MEL-2
[6] = system: UACC-62
[7] = system: SNB-75
[8] = system: COLO 205
[9] = system: RPMI-8226
[10] = system: SK-MEL-5
[11] = system: SF-539
[12] = system: SK-MEL-28
[13] = system: SF-295
[14] = system: HOP-62
[15] = system: NCI-H460
[16] = system: SF-268
[17] = system: MOLT-4
[18] = system: UO-31
[19] = system: PC-3
[20] = system: T47D

CC(=O)OC1CCC2(C)C(CCC3C2CC(=O)C2(C)C3CC(N3CC3)C2C(C)=O)C1 (stereo not given)
GI50 [1]: 18.4 µM (inactive)
GI50 [2]: 19.6 µM (inactive)
GI50 [3]: 20.2 µM (inactive)
GI50 [4]: 5.33 µM (inactive)
GI50 [5]: 17.5 µM (inactive)
GI50 [6]: 16.2 µM (inactive)
GI50 [7]: 17.2 µM (inactive)
GI50 [8]: 15.8 µM (inactive)
GI50 [9]: 18 µM (inactive)
GI50 [10]: 15.2 µM (inactive)
GI50 [11]: 11.8 µM (inactive)
GI50 [12]: 30.7 µM (inactive)
GI50 [13]: 5.71 µM (inactive)
GI50 [14]: 24.5 µM (inactive)
GI50 [15]: 12.4 µM (inactive)
GI50 [16]: 11.6 µM (inactive)
GI50 [17]: 2.11 µM (inactive)
GI50 [18]: 18 µM (inactive)
GI50 [19]: 14.1 µM (inactive)
GI50 [20]: 18.7 µM (inactive)

COc1cc2cc(C(=O)N3CC(COS(C)(=O)=O)c4c3cc([N+](=O)[O-])c3ccccc43)[nH]c2c(OC)c1OC (stereo not given)
GI50 [1]: > 31.6 µM (inactive)
GI50 [2]: 10.7 µM (inactive)
GI50 [3]: 19 µM (inactive)
GI50 [4]: 33.2 µM (inactive)
GI50 [5]: 7.71 µM (inactive)
GI50 [6]: 2.74 µM (inactive)
GI50 [7]: > 24 µM (inactive)
GI50 [8]: > 35.6 µM (inactive)
GI50 [9]: 2.92 µM (inactive)
GI50 [10]: > 10 µM (inactive)
GI50 [11]: 4.05 µM (inactive)
GI50 [12]: > 31.6 µM (inactive)
GI50 [13]: 2.37 µM (inactive)
GI50 [14]: 7.57 µM (inactive)
GI50 [15]: 0.0986 µM (active)
GI50 [16]: 10.5 µM (inactive)
GI50 [17]: 0.407 µM (active)
GI50 [18]: 2.56 µM (inactive)
GI50 [19]: 22.9 µM (inactive)
GI50 [20]: > 31.6 µM (inactive)

CC1(C)CCC2=C(O1)/C(=N\Nc1ccc(F)cc1)c1ccccc1C2=O
GI50 [1]: 39.5 µM (inactive)
GI50 [2]: 30.3 µM (inactive)
GI50 [3]: 20.1 µM (inactive)
GI50 [4]: 11.5 µM (inactive)
GI50 [5]: 32.3 µM (inactive)
GI50 [6]: 14.7 µM (inactive)
GI50 [7]: 22.2 µM (inactive)
GI50 [8]: 35.1 µM (inactive)
GI50 [9]: 40.4 µM (inactive)
GI50 [10]: 8.91 µM (inactive)
GI50 [11]: 46.9 µM (inactive)
GI50 [12]: 26.2 µM (inactive)
GI50 [13]: 20.7 µM (inactive)
GI50 [14]: 21.7 µM (inactive)
GI50 [15]: 23.9 µM (inactive)
GI50 [16]: 52.1 µM (inactive)
GI50 [17]: 35.3 µM (inactive)
GI50 [18]: 38.2 µM (inactive)
GI50 [19]: 34.8 µM (inactive)
GI50 [20]: 17.3 µM (inactive)

COc1cccc(/C=C2\CCC(CN(C)C)C2=O)c1 (stereo not given)
GI50 [1]: 13.7 µM (inactive)
GI50 [2]: 16.3 µM (inactive)
GI50 [3]: 3.6 µM (inactive)
GI50 [4]: 1.73 µM (inactive)
GI50 [5]: 11.8 µM (inactive)
GI50 [6]: 8.24 µM (inactive)
GI50 [7]: 17 µM (inactive)
GI50 [8]: 4.35 µM (inactive)
GI50 [9]: 0.995 µM (active)
GI50 [10]: 9.82 µM (inactive)
GI50 [11]: 13.9 µM (inactive)
GI50 [12]: 3.03 µM (inactive)
GI50 [13]: 16.6 µM (inactive)
GI50 [14]: 12.1 µM (inactive)
GI50 [15]: 16.2 µM (inactive)
GI50 [16]: 6.07 µM (inactive)
GI50 [17]: 1.44 µM (inactive)
GI50 [18]: 9.51 µM (inactive)
GI50 [19]: 12.4 µM (inactive)
GI50 [20]: 2.76 µM (inactive)

CCOc1ccc(N/C(Cl)=C(Cl)\C(=C(\Nc2ccc(OCC)cc2)n2nnc3ccccc32)[N+](=O)[O-])cc1
GI50 [1]: 2.25 µM (inactive)
GI50 [2]: 20.4 µM (inactive)
GI50 [3]: 4.75 µM (inactive)
GI50 [4]: 1.65 µM (inactive)
GI50 [5]: 16.7 µM (inactive)
GI50 [6]: 15.7 µM (inactive)
GI50 [7]: 18.3 µM (inactive)
GI50 [8]: 7.38 µM (inactive)
GI50 [9]: 4.18 µM (inactive)
GI50 [10]: 8.49 µM (inactive)
GI50 [11]: 4.2 µM (inactive)
GI50 [12]: 7.83 µM (inactive)
GI50 [13]: 22.1 µM (inactive)
GI50 [14]: 33.1 µM (inactive)
GI50 [15]: 24.7 µM (inactive)
GI50 [16]: 6.98 µM (inactive)
GI50 [17]: 2.85 µM (inactive)
GI50 [18]: 4.45 µM (inactive)
GI50 [19]: 7.4 µM (inactive)
GI50 [20]: 4.47 µM (inactive)

Nc1nc(Cl)c(N)c(NCC2(CO)CC2)n1
GI50 [1]: > 100 µM (inactive)
GI50 [2]: > 100 µM (inactive)
GI50 [3]: > 100 µM (inactive)
GI50 [4]: > 100 µM (inactive)
GI50 [5]: > 100 µM (inactive)
GI50 [6]: > 100 µM (inactive)
GI50 [7]: > 100 µM (inactive)
GI50 [8]: > 100 µM (inactive)
GI50 [9]: > 100 µM (inactive)
GI50 [10]: > 100 µM (inactive)
GI50 [11]: > 100 µM (inactive)
GI50 [12]: > 100 µM (inactive)
GI50 [13]: > 100 µM (inactive)
GI50 [14]: > 100 µM (inactive)
GI50 [15]: > 100 µM (inactive)
GI50 [16]: > 100 µM (inactive)
GI50 [17]: > 100 µM (inactive)
GI50 [18]: > 100 µM (inactive)
GI50 [19]: > 100 µM (inactive)
GI50 [20]: > 100 µM (inactive)

C=CC(OC(C)=O)c1ccc(OC(=O)C(C)C)c(OC)c1 (stereo not given)
GI50 [1]: 5.93 µM (inactive)
GI50 [2]: 17.2 µM (inactive)
GI50 [3]: 5.6 µM (inactive)
GI50 [4]: 1.95 µM (inactive)
GI50 [5]: 4.48 µM (inactive)
GI50 [6]: 13.3 µM (inactive)
GI50 [7]: 4.86 µM (inactive)
GI50 [8]: 2.49 µM (inactive)
GI50 [9]: 1.82 µM (inactive)
GI50 [10]: 15.3 µM (inactive)
GI50 [11]: 9.4 µM (inactive)
GI50 [12]: 11.1 µM (inactive)
GI50 [13]: 10.5 µM (inactive)
GI50 [14]: 10.2 µM (inactive)
GI50 [15]: 11.4 µM (inactive)
GI50 [16]: 7.8 µM (inactive)
GI50 [17]: 9.02 µM (inactive)
GI50 [18]: 3.44 µM (inactive)
GI50 [19]: 5.19 µM (inactive)
GI50 [20]: 2.86 µM (inactive)
